Patent publication US11872217B2, “Indanes as PD-L1 inhibitors” (CHEMOCENTRYX, INC., priority 2019, dated 2024)

What follows are molecules tested against human PD-L1 / Human PD-1 (Homo sapiens (Human), UniProt Q9NZQ7) (assay: Enzyme-Linked Immunosorbent Assay (ELISA), PD-1/PD-L1 binding). Conditions: plates coated with human PD-L1; biotinylated human PD-1; absorbance at 450 nm.
Method: 96 Well plates were coated with 1 μg/mL of human PD-L1 (obtained from R&D) in PBS overnight at 4° C. The wells were then blocked with 2% BSA in PBS (W/V) with 0.05% TWEEN-20 for 1 hour at 37° C. The plates were washed 3 times with PBS/0.05% TWEEN-20 and the compounds were serial diluted (1:5) in dilution medium and added to the ELISA plates. Human PD-1 and biotin 0.3 μg/mL (ACRO Biosystems) were added and incubated for 1 hour at 37° C. then washed 3 times with PBS/0.05% TWEEN-20. A second block was performed with 2% BSA in PBS (W/V)/0.05% TWEEN-20 for 10 min at 37° C. and the plates were washed 3 times with PBS/0.05% TWEEN-20. Streptavidin-HRP was added for 1 hour at 37° C. then the plates were washed 3 times with PBS/0.05% TWEEN-20. TMB substrate was added and reacted for 20 min at 37° C. A stop solution (2 N aqueous H2SO4) was added. The absorbance was read at 450 nm using a micro-plate spectrophotometer. The results are shown in Table 1: IC50 values are provided as follows: from 100 up to 10,000 nM (+); less than 100 nM (++).

Chain of human PD-L1 / Human PD-1 (Q9NZQ7 19-239): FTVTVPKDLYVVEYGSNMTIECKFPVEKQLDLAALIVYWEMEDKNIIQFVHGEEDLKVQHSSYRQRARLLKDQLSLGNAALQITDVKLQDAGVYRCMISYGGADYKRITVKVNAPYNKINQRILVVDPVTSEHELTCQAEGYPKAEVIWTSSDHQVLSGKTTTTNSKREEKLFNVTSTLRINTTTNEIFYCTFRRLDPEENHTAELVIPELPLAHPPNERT

SMILES | IC50 [nM]
CCOc1cc(O[C@H]2CCc3c(-c4cccc5c4CC[C@@H]5Oc4cc(OCC)c(CN(C)CCCC(=O)OC)cc4Cl)cccc32)c(Cl)cc1CN(C)CCCC(=O)OC [Compound 1.021] | 100 to 10000
CCOc1cc(O[C@H]2CCc3c(-c4cccc5c4CC[C@@H]5Oc4cc(OCC)c(CN[C@@](C)(CO)C(=O)OC)cc4Cl)cccc32)c(Cl)cc1CN[C@@](C)(CO)C(=O)OC [Compound 1.022] | 100 to 10000
CCOc1cc(OCc2cccc(-c3cccc4c3CCC4Oc3ccc(CN[C@@](C)(CO)C(=O)O)c(OCC)c3)c2C)ccc1CN[C@@](C)(CO)C(=O)O (stereo partly drawn) [Compound 1.023] | 100 to 10000
CCOc1cc(O[C@H]2CCc3c(-c4cccc5c4CC[C@@H]5Oc4cc(OCC)c(CN[C@H](C(=O)OC)[C@@H](C)O)cc4Cl)cccc32)c(Cl)cc1CN[C@H](C(=O)OC)[C@@H](C)O [Compound 1.034] | 100 to 10000
CC(C)OC(=O)[C@](C)(CO)NCc1cc(Cl)c(O[C@H]2CCc3c(-c4cccc5c4CC[C@@H]5Oc4cc(OCc5cncc(C#N)c5)c(CN[C@@](C)(CO)C(=O)OC(C)C)cc4Cl)cccc32)cc1OCc1cncc(C#N)c1 [Compound 1.041] | 100 to 10000
CCOc1cc(O[C@H]2CCc3c(-c4cccc5c4CC[C@@H]5Oc4cc(OCC)c(CN(C)CCC(=O)OC)cc4Cl)cccc32)c(Cl)cc1CN(C)CCC(=O)OC [Compound 1.043] | 100 to 10000
CCOc1cc(O[C@H]2CCc3c(-c4cccc5c4CC[C@@H]5Oc4cc(OCC)c(CN[C@@](C)(CO)C(=O)O)cc4Cl)cccc32)c(Cl)cc1CN[C@@](C)(CO)C(=O)O [Compound 1.044] | < 100
CCOc1cc(O[C@H]2CCc3c(-c4cccc5c4CC[C@@H]5Oc4cc(OCC)c(CN[C@@H](CO)C(=O)O)cc4Cl)cccc32)c(Cl)cc1CN[C@@H](CO)C(=O)O [Compound 1.045] | < 100
N#Cc1cncc(COc2cc(O[C@H]3CCc4c(-c5cccc6c5CC[C@@H]6Oc5cc(OCc6cncc(C#N)c6)c(CN[C@@H](CCO)C(=O)O)cc5Cl)cccc43)c(Cl)cc2CN[C@@H](CCO)C(=O)O)c1 [Compound 1.046] | < 100
CCOc1cc(O[C@H]2CCc3c(-c4cccc5c4CC[C@@H]5Oc4cc(OCC)c(CN[C@@H](CCO)C(=O)O)cc4Cl)cccc32)c(Cl)cc1CN[C@@H](CCO)C(=O)O [Compound 1.047] | < 100
CCOc1cc(O[C@H]2CCc3c(-c4cccc5c4CC[C@@H]5Oc4cc(OCC)c(CN5CCC5(C)C)cc4Cl)cccc32)c(Cl)cc1CN1CCC1(C)C [Compound 1.048] | < 100
CCOc1cc(O[C@H]2CCc3c(-c4cccc5c4CC[C@@H]5Oc4cc(OCC)c(CN(C)CCC(=O)O)cc4Cl)cccc32)c(Cl)cc1CN(C)CCC(=O)O [Compound 1.049] | < 100
CCOc1cc(O[C@H]2CCc3c(-c4cccc5c4CC[C@@H]5Oc4cc(OCC)c(CN5CC6(CC(O)C6)C5)cc4Cl)cccc32)c(Cl)cc1CN1CC2(CC(O)C2)C1 [Compound 1.050] | < 100
C[C@@](CO)(NCc1cc(Cl)c(O[C@H]2CCc3c(-c4cccc5c4CC[C@@H]5Oc4cc(OCc5cncc(C#N)c5)c(CN[C@@](C)(CO)C(=O)O)cc4Cl)cccc32)cc1OCc1cncc(C#N)c1)C(=O)O [Compound 1.051] | < 100

Further lines, results first:

IC50 [nM] | SMILES
< 100 | Cc1c(COc2ccc(CN[C@@](C)(CO)C(=O)O)cc2Cl)cccc1-c1cccc2c1CCC2Oc1ccc(CN[C@@](C)(CO)C(=O)O)cc1Cl (stereo partly drawn) [Compound 1.024]
< 100 | CCOc1cc(O[C@H]2CCc3c(-c4cccc5c4CC[C@@H]5Oc4cc(OCC)c(CN(C)CCCC(=O)O)cc4Cl)cccc32)c(Cl)cc1CN(C)CCCC(=O)O [Compound 1.025]
< 100 | CCOc1cc(O[C@H]2CCc3c(-c4cccc5c4CC[C@@H]5Oc4cc(OCc5cc(C#N)cc(C#N)c5)c(CN[C@@](C)(CO)C(=O)O)cc4Cl)cccc32)c(Cl)cc1CN[C@@](C)(CO)C(=O)O [Compound 1.026]
< 100 | COC(=O)CCCN(C)Cc1cc(Cl)c(O[C@H]2CCc3c(-c4cccc5c4CC[C@@H]5Oc4cc(OCc5cncc(C#N)c5)c(CN(C)CCCC(=O)OC)cc4Cl)cccc32)cc1OCc1cncc(C#N)c1 [Compound 1.027]
< 100 | CCOc1cc(O[C@H]2CCc3c(-c4cccc5c4CC[C@@H]5Oc4cc(OCC)c(CN5CCC6(C5)NC(=O)NC6=O)cc4Cl)cccc32)c(Cl)cc1CN[C@@](C)(CO)C(=O)O (stereo partly drawn) [Compound 1.028]
< 100 | CCOc1cc(O[C@H]2CCc3c(-c4cccc5c4CC[C@@H]5Oc4cc(OCC)c(CN[C@H](C(=O)NS(C)(=O)=O)[C@@H](C)O)cc4Cl)cccc32)c(Cl)cc1CN[C@H](C(=O)NS(C)(=O)=O)[C@@H](C)O [Compound 1.030]
< 100 | CCOc1cc(O[C@H]2CCc3c(-c4cccc5c4CC[C@H]5Oc4cc(OCC)c(CN[C@@](C)(CO)C(=O)O)cc4Cl)cccc32)c(Cl)cc1CN[C@@](C)(CO)C(=O)O [Compound 1.031]
< 100 | CCOc1cc(O[C@H]2CCc3c(-c4cccc5c4CC[C@@H]5Oc4cc(OCC)c(CN[C@@](C)(CO)C(=O)O)cc4Cl)cccc32)c(Cl)cc1CNC[C@@H]1CCC(=O)N1 [Compound 1.032]
< 100 | CN(Cc1cc(Cl)c(O[C@H]2CCc3c(-c4cccc5c4CC[C@@H]5Oc4cc(OCc5cncc(C#N)c5)c(CN(C)[C@@](C)(CO)C(=O)O)cc4Cl)cccc32)cc1OCc1cncc(C#N)c1)[C@@](C)(CO)C(=O)O [Compound 1.033]
< 100 | CN(CCCC(=O)O)Cc1cc(Cl)c(O[C@H]2CCc3c(-c4cccc5c4CC[C@@H]5Oc4cc(OCc5cncc(C#N)c5)c(CN(C)CCCC(=O)O)cc4Cl)cccc32)cc1OCc1cncc(C#N)c1 [Compound 1.035]
< 100 | CCOc1cc(O[C@H]2CCc3c(-c4cccc(COc5cc(COC)c(CN[C@@](C)(CO)C(=O)O)cc5Cl)c4C)cccc32)c(Cl)cc1CN[C@@](C)(CO)C(=O)O [Compound 1.036]
< 100 | CCOc1cc(O[C@H]2CCc3c(-c4cccc(COc5ccc(CN(C)C)cc5)c4C)cccc32)c(Cl)cc1CN[C@@](C)(CO)C(=O)O [Compound 1.037]
< 100 | N#Cc1cncc(COc2cc(O[C@H]3CCc4c(-c5cccc6c5CC[C@@H]6Oc5cc(OCc6cncc(C#N)c6)c(CN[C@@H](CO)C(=O)O)cc5Cl)cccc43)c(Cl)cc2CN[C@@H](CO)C(=O)O)c1 [Compound 1.038]
< 100 | C[C@@H](O)[C@H](NCc1cc(Cl)c(O[C@H]2CCc3c(-c4cccc5c4CC[C@@H]5Oc4cc(OCc5cncc(C#N)c5)c(CN[C@H](C(=O)O)[C@@H](C)O)cc4Cl)cccc32)cc1OCc1cncc(C#N)c1)C(=O)O [Compound 1.039]
< 100 | CCOc1cc(O[C@H]2CCc3c(-c4cccc5c4CC[C@@H]5Oc4cc(OCc5cncc(C#N)c5)c(CN[C@@](C)(CO)C(=O)O)cc4Cl)cccc32)c(Cl)cc1CN[C@@](C)(CO)C(=O)O [Compound 1.040]
< 100 | CCOc1cc(O[C@H]2CCc3c(-c4cccc5c4CC[C@@H]5Oc4cc(OCC)c(CN[C@H](C(=O)O)[C@@H](C)O)cc4Cl)cccc32)c(Cl)cc1CN[C@H](C(=O)O)[C@@H](C)O [Compound 1.042]
